According to article PMC6216040, “Repurposing of an old drug: In vitro and in vivo efficacies of buparvaquone against Echinococcus multilocularis” (International Journal for Parasitology: Drugs and Drug …, 2018):
Like-named read-outs stand apart in the source and are kept apart here.

Test system: E. multilocularis metacestodes
Assay: PGI-assay: drug-induced damage on in vitro cultured metacestodes (Pathogen Box screening cascade and EC50)
Format: cell-based, Echinococcus multilocularis
Conditions: 10 µM, singlets; for cytotoxicity at 10 µM: Echinococcus multilocularis

| SMILES | PGI release, % of the Tx-100 control, 5d (5 days of incubation) | PGI release, % of the Tx-100 control, 12d (12 days of incubation) | cytotoxicity at 10 µM (120 h, 5 days of incubation, read-out: PGI release, % of the Tx-100 control, 5d) | cytotoxicity at 10 µM (288 h, 12 days of incubation, read-out: PGI release, % of the Tx-100 control, 12d) |
| --- | --- | --- | --- | --- |
| CCc1ccc(S(=O)(=O)Nc2cc(CN3CCN(CCC(C)C)CC3)ccc2C)cc1 [MMV688124] | -0.0233% | -0.17% |  |  |
| CCCc1ccc(S(=O)(=O)Nc2ccc(CN3CCN(CC4CC4)CC3)cc2)cc1 [MMV688125] | -0.08% | -1.69% |  |  |
| c1ccc(Oc2ccc(-c3cncc(-c4ccc5[nH]ccc5c4)n3)cc2)cc1 [MMV688178] | 0.34% | 0.47% |  |  |
| NC(N)=Nc1ccc(-c2ccc(-c3ccc(N=C(N)N)cc3Cl)o2)c(Cl)c1 [MMV688179] | -4.57% | 19.83% |  |  |
| Cc1nn(C)c(C)c1NS(=O)(=O)c1c(Cl)cc(-c2ccnc(N3CCNCC3)c2)cc1Cl [MMV688180] | -0.14% | 0.11% |  |  |
| C[C@]1(COc2ccc(N3CCC(Oc4ccc(OC(F)(F)F)cc4)CC3)cc2)Cn2cc([N+](=O)[O-])nc2O1 [MMV688262, Delaminid, reference compound] | -3.74% | -0.38% |  |  |
| COc1ccc(-c2cnc3cnc(-c4cccc(OC(C)C)c4)cn23)cc1 [MMV688270] | 0.02% | -0.02% |  |  |
| N=C(N)Nc1ccc(-c2ccc(-c3ccc(N=C(N)N)c(Cl)c3)o2)cc1Cl [MMV688271] | 9.82% | 13.94% |  |  |
| Nc1ccc2ncnc(Nc3ccc(OCc4cccc(F)c4)c(Cl)c3)c2c1 [MMV688273] | -1.47% | -4.16% |  |  |
| O=C(CN1CCOCC1)Nc1ccc2ncnc(Nc3ccc(OCc4cccc(F)c4)c(Cl)c3)c2c1 [MMV688274] | -0.59% | -0.94% |  |  |
| CC1=Nc2ccc(Cl)cc2C(O)(c2ccc(C)cc2)N1CCN1CCCCC1 (stereo not drawn) [MMV688279] | 0.73% | 1.56% |  |  |
| CN1CCN(S(=O)(=O)c2ccc(-c3ccc4c(Nc5ncc(Cl)cn5)ccnc4c3)cc2)CC1 [MMV688283] | 0.90% | -1.47% |  |  |
| COc1ccc(-c2nnc3ccc(-c4cccc(C(C)C)c4)cn23)cc1OC [MMV688313] | -0.11% | -3.88% |  |  |
| CC(=O)NC[C@H]1CN(c2ccc(-c3ccc(CNCc4cnn[nH]4)cc3)c(F)c2)C(=O)O1 [MMV688327, Radezolid, reference compound] |  |  | -0.89% | -1.52% |
| CC(=O)N1CCN(c2ccc(Oc3ccc(Cl)cc3O)cc2)CC1 [MMV688330] | -0.72% | -5.52% |  |  |
| Nc1nc(N)c2c3c(sc2n1)CN(Cc1ccccc1)CC3 [MMV688345] | -0.50% | -0.61% |  |  |
| COC(=O)c1ccc(F)cc1NS(=O)(=O)c1cccc(-c2cnn(Cc3ccccc3)c2)c1 [MMV688350] | -0.16% | 0.44% |  |  |
| O=C1[C@@H](Oc2ccccc2)[C@@H](c2ccc(Cl)cc2)N1CCn1cnc2c(NCc3ccccc3)ncnc21 [MMV688352] | 2.57% | 3.05% |  |  |
| c1cc(C2=NCCN2)cc(-c2cc(-c3ccc(C4=NCCN4)cc3)no2)c1 [MMV688361] | -0.63% | -1.49% |  |  |
| COc1cc(C2=NCCN2)cc2cc(-c3ccc(C4=NCCN4)cc3)oc12 [MMV688362] | 0.03% | 0.64% |  |  |
| CC(C)(C)OC(=O)N1CCC(Cn2nc(-c3cnc4ccccc4c3)c3c(N)ncnc32)CC1 [MMV688364] | 0.11% | -0.13% |  |  |
